Test results published in patent US20210371451A1, “CYCLIC-DI-AMP SODIUM SALT CRYSTAL” (Yamasa Corporation, priority 2018, published 2021).
Where two headings read alike, the source gives them in different places.

Assays:
[1] = format: physicochemical; conditions: for purity of crystal by HPLC: 105° C.
Experimental: The purity of the c-di-AMP sodium salt in the crystal α obtained in Example 1 was analyzed by high performance liquid chromatography. As a result, the purity of c-di-AMP was 100%. Note that the high performance liquid chromatography was performed under the following conditions.
Column: Hydrosphere C18 (manufactured by YMC, Inc.)
Eluent: 0.1 M TEA-P (pH 6.0)+4.5% ACN
Detection method: detection at UV260 nm
The crystals obtained in the above Example 1, Example 2, Example 4, and Reference Example were allowed to stand under conditions at 105° C. Some crystals were sampled over time, and an aqueous solution was prepared therefrom. Then, the purity of each crystal was analyzed by high performance liquid chromatography. FIG. 18 and Table 6 show the results obtained.

[2] = pH 5
Experimental: The purified c-di-AMP was used to prepare a c-di-AMP aqueous solution with an OD257 of 2500 and at a pH of 5.0, 5.2, 5.4, 5.6, 5.8, 6.0, or 6.5. Each resulting c-di-AMP solution (0.2 mL) with an OD257 of 2500 was heated to 30° C. Next, 1 mL of 99.5% (w/w) ethanol was gently added. The mixture was then tightly sealed and allowed to stand overnight or for several days at 30° C. to precipitate crystals. The resulting crystals so precipitated were filtered through a membrane filter to yield wet crystals.
Dilution allowed for preparation of a c-di-AMP aqueous solution at a low concentration.

With Nc1ncnc2c1ncn2[C@@H]1O[C@@H]2COP(=O)(O)O[C@H]3[C@@H](O)[C@H](n4cnc5c(N)ncnc54)O[C@@H]3COP(=O)(O)O[C@H]2[C@H]1O [Reference Example, c-di-AMP free acid, reference compound] the “stability under severe conditions” value [1] was “decreased stability”, the “purity of crystal by HPLC” value ([1]; Day 0) was 100.00% and the “purity of crystal by HPLC” value ([1]; Day 1) was 91.81%. For the same compound, the “purity of crystal by HPLC” value ([1]; Day 2) was 88.82%, the “purity of crystal by HPLC” value ([1]; Day 3) was 86.46% and the “purity of crystal by HPLC” value ([1]; Day 4) was 86.31%. The “purity of crystal by HPLC” value ([1]; Day 5) was 85.42%.
With Nc1ncnc2c1ncn2[C@@H]1O[C@@H]2COP(=O)(O)O[C@H]3[C@@H](O)[C@H](n4cnc5c(N)ncnc54)O[C@@H]3COP(=O)(O)O[C@H]2[C@H]1O [c-di-AMP, Cyclic-di-AMP] the solubility [2] was “low”.
In the case of c-di-AMP sodium salt [Example 1], the “purity of crystal by HPLC” value ([1]; Day 0) is reported as 100.00%, the “purity of crystal by HPLC” value ([1]; Day 1, sodium salt) is reported as 98.75% and the “purity of crystal by HPLC” value ([1]; Day 2, sodium salt) is reported as 97.98%. The “purity of crystal by HPLC” value ([1]; Day 3, sodium salt) was 97.98%, the “purity of crystal by HPLC” value ([1]; Day 4, sodium salt) was 97.87% and the “purity of crystal by HPLC” value ([1]; Day 5, sodium salt) was 97.15%.
In the case of c-di-AMP sodium salt [Example 2], the “purity of crystal by HPLC” value ([1]; Day 0) is reported as 100.00%, the “purity of crystal by HPLC” value ([1]; Day 1, sodium salt) is reported as 99.02% and the “purity of crystal by HPLC” value ([1]; Day 2, sodium salt) is reported as 98.73%. For the same compound, the “purity of crystal by HPLC” value ([1]; Day 3, sodium salt) was 98.63%, the “purity of crystal by HPLC” value ([1]; Day 4, sodium salt) was 99.02% and the “purity of crystal by HPLC” value ([1]; Day 5, sodium salt) was 98.09%.
With c-di-AMP sodium salt [Example 4] the “purity of crystal by HPLC” value ([1]; Day 0) was 100.00%, the “purity of crystal by HPLC” value ([1]; Day 1, sodium salt) was 99.65% and the “purity of crystal by HPLC” value ([1]; Day 2, sodium salt) was 99.35%. The “purity of crystal by HPLC” value ([1]; Day 3, sodium salt) was 99.14%, the “purity of crystal by HPLC” value ([1]; Day 4, sodium salt) was 99.09% and the “purity of crystal by HPLC” value ([1]; Day 5, sodium salt) was 98.93%.
